Experimental findings from article PMC11609934, “Exploration and characterization of the antimalarial activity of cyclopropyl carboxamides that target the mitochondrial protein, cytochrome b” (European Journal of Medicinal Chemistry, 2024) are described below.

Molecules are shown by their SMILES. In brackets after ≈: the same amount, converted by molar mass. Like-named read-outs stand apart in the source and are kept apart here.

The test system of one data set is male gamete. The data set can be described thus: Dual gamete formation assay, male gametes. As to conditions: Plasmodium falciparum; NF54 parasites in a DGFA, 4 replicates. It counts as cell-based. The method, then:
(§1) To determine whether the cyclopropyl carboxamide class has transmission blocking potential we profiled selected analogs in a dual gamete formation assay. In this assay, stage V gametocytes are treated with compound, and gametogenesis is induced by the addition of xanthurenic acid. Male gamete viability is determined by an imaging algorithm measuring motile flagellation, while female viability is measured using an antibody to the female-specific Pfs25 surface marker. […] Collectively, the activity observed against male gametes is consistent with activity observed with other cyt b inhibitors.
(§2) Dual Gamete Formation Assay. Compounds were evaluated as previously described as a platform run at both Imperial College London and the London School of Hygiene and Tropical Medicine. Briefly, mature stage V gametocytes were exposed to compounds for 48 h at 37 °C in 384 well plates in gametocyte culture medium (RPMI 1640 supplemented with 25 mM HEPES, 50 μg/mL hypoxanthine, 4.8 g/L NaHCO3, 2 mM L-glutamine, 5 % pooled type AB serum, 0.5 % Albumax II (Gibco)) under a 1 % O2/3 % CO2/96 % N2 environment. Gametogenesis was then triggered by the addition of 10 μL ookinete medium (gametocyte culture medium supplemented with 100 μM xanthurenic acid and 0.27 μg/mL Cy3-labelled anti-Pfs25 antibody) to each well at room temperature. Plates were then cooled on a metal block at 4 °C for 4 min to ensure even cooling and then stabilized for a further 4 min at 28 °C. At 20 min post-induction, male gametogenesis was recorded in each well by automated brightfield microscopy using a × 4 objective lens and 1.5 × magnifier ( × 6 effective magnification). Afterward, plates were incubated in the dark at room temperature for 24 h and then female gametogenesis recorded in each well by automated fluorescence microscopy (anti-Pfs25-positive cells). […] All data was evaluated in comparison to the positive and negative controls to calculate percentage inhibition of male and female gametocytes, and dose response analysis and EC50 calculation performed using GraphPad Prism.

The nature of data set [1]: Aqueous solubility (kinetic in PBS, pH 7.4). It counts as physicochemical. Particulars: phosphate buffered saline. The method, then: Solubility. The solubility assay was performed using a miniaturized shake flask method. A solution of phosphate buffered saline (PBS) and the test compound (200 μM) was incubated at 25 °C with constant shaking (600 rpm) for 2 h. The samples were filtered using a multiscreen solubility filter plate. The filtrate was half diluted in acetonitrile. A five-point linearity curve was prepared in PBS:acetonitrile (1:1, v/v) at 200, 150, 75, 25 and 2.5 μM. Blank, linearity and test samples (n = 2) were transferred to a UV readable plate and the plate was scanned for absorbance. Best fit calibration curves were constructed using the calibration standards and used to determine the test sample solubility. The experiment was carried out in duplicate. Diethylstilbestrol, haloperidol, and diclofenac sodium were used as reference standards.

A further data set is described as follows: Rat hepatocyte stability. It counts as in vitro ADME. As to conditions: pooled rat hepatocytes. As to the method: Rat Hepatocyte Stability. A solution of the test compound in Krebs-Henseliet buffer solution (1 μM) was incubated in pooled rat hepatocytes (1 × 10^6 cells/mL) for 0, 15,30,45, 60, 75 and 90 min at 37 °C (5 % CO2, 95 % relative humidity). The reaction was terminated with the addition of ice-cold acetonitrile containing system suitability standard at designated time points. […] The experiment was carried out in duplicate. Diltiazem, 7-ethoxy coumarin, propranolol, and midazolam were used as reference standards.

Data set [2] relates to W466-resistant populations. The data set can be described thus: 72 h growth assay against W466-resistant populations. It counts as cell-based, Plasmodium falciparum. As to conditions: for EC50: Plasmodium falciparum. From the text: To determine the mechanism of action of the cyclopropyl carboxamide series, a forward genetic resistance study was undertaken on the two hit compounds W466 (1) and W499 (2).
The structures of W466 (1) and W499 (2) are slightly different although they appear to belong to the same structural class. To confirm if W466 (1) and W499 (2) may have the same molecular target, W466 (1) and W499 (2) were each evaluated for cross resistance against their respective resistant populations from the pulsed forward genetic study (Fig. 2).

The subject of the next data set is female gamete. The data set can be described thus: Dual gamete formation assay, female gametes. It counts as cell-based. Particulars: Plasmodium falciparum; NF54 parasites in a DGFA, 4 replicates. As to the method:
as §1, §2

The subject of data set [3] is P. falciparum 3D7 parasites. The data set can be described thus: P. falciparum 3D7 asexual stage LDH assay (72 h). It counts as cell-based, Plasmodium falciparum. Particulars: Plasmodium falciparum, read-out: Pf 3D7 EC50 (SD). In short, it runs like this: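 Asexual P. falciparum 3D7 parasites were grown for 72 h over a 10-point, 3-fold series starting at 1 μM in 0.1% DMSO, with 100 nM chloroquine as negative growth control. After freeze-thaw, parasite LDH was read at 650 nm, and EC50 came from a variable-slope sigmoidal fit.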

Data set [4] relates to ring-stage P. falciparum parasites. The data set can be described thus: Asexual stage of arrest assay. As to conditions: 10 times EC50, sampled every 12 h for 48 h. It counts as cell-based, Plasmodium falciparum. The method, then: Characterization of asexual stage phenotype and rate of asexual kill is important in determining the downstream application and TCP of an antimalarial series. […] Parasites were sampled every 12 h for 48 h, to prepare Giemsa-stained blood smears for analysis by microscopy. Parasitemia of each sample was measured by flow cytometry using SYBR-Green DNA staining.
Asexual Stage of Arrest Assay. This assay was conducted as previously described.

The next data set deals with Pf Dd2 parental line. The data set can be described thus: Asexual stage assay, Dd2 parental line (SYBR green by FACS, 72 h). It counts as cell-based. As to conditions: Plasmodium falciparum, DD2, 72 h, read-out: Pf Dd2 EC50 (SD), 72 h, SYBR green by FACS, 3 experiments. As to the method:
Cyt b Resistant and ScDHODH Asexual Stage Assays. These assays were conducted as previously described. Briefly, asexual parasite strains indicated in Table 12 were incubated with compound in a dose response format for 72 h. Parasitemia was determined using SYBR-green fluorescence measured by flow cytometry (Thermo Fisher Attune). EC50 values were determined as described for the LDH assay.
For orientation: A flow cytometer gives signals particle by particle.

For `O=C(NC1CC1)c1ccc(CN(Cc2ccc(Cl)cc2Cl)C2CC2)cc1` [W499 (2)], the EC50 with male gamete was 760 nM; in data set [2] (read-out: EC50 against W466-resistant parasites), 220 to 280 nM; in data set [2] (read-out: W466-resistant populations EC50 (SD) #1) it was 283 nM; in data set [2] (read-out: W466-resistant populations EC50 (SD) #2) it was 243 nM; in data set [2] (read-out: W466-resistant populations EC50 (SD) #3), 215 nM; with female gamete it was greater than 25000 nM. The EC50 in data set [3] (3D7 / DSM 265, parent 3D7 for resistant populations, LDH assay, 3 experiments (SYBR-green for DSM265)) came out at 170 nM. Also, the solubility at 2 h in data set [1] was found to be 7.4 µM (≈ 2.88 µg/mL). The hepatocyte CLint at 1 μM in “Rat hepatocyte stability” is greater than 92 µL/min/1e6 cells. Besides, in data set [2], the “fold shift in EC50 against W466-resistant populations compared to wildtype 3D7” value came out at 2 fold. For the same compound, the “asexual stage of arrest” value in data set [4] is listed as “parasite arrest at the start of the trophozoite stage”.

In the case of `CCCN(Cc1ccc(C(=O)NC2CC2)cc1)Cc1ccc(C(F)(F)F)cc1` [WJM280 (108), N-Cyclopropyl-4-((propyl(4-(trifluoromethyl)benzyl)amino)methyl)benzamide], the concentration in solution in data set [1] (solubility at 2 h) was 15 µM (≈ 5.86 µg/mL). For the same compound, the EC50 with Pf Dd2 parental line is 10 nM; in data set [3] (3D7, 72 h, LDH activity of P. falciparum 3D7 parasites over 72 h, means and SDs, three or more experiments), 40 nM. Further, the hepatocyte CLint at 1 μM in “Rat hepatocyte stability” was greater than 92 µL/min/1e6 cells.

What is called EC50 is the concentration at which the effect is half-maximal. Broadly, the solubility is the concentration that dissolves in the medium under given conditions. A low value points to a poorly soluble substance. The term hepatocyte CLint denotes a measure of how fast metabolising enzymes remove a compound, apart from limits set by blood flow. High values mean rapid turnover, low ones slow turnover.
